Source: patent US9505796B2, “Phosphorylated A2A receptor agonists” (Crozet Medical GMBH, priority 2006, dated 2016)

Columns and labels:
[1] = test system: VCAM-1 mRNA expression in aortic ECs; test: VCAM-1 mRNA expression in cultured aortic ECs (PCR); type: cell-based, mouse; settings: CD73−/− ECs, ATL-146e 10 μM for 6 hours
Procedure: (§1) Mouse aortal ECs were cultured as described. Six mL of type I rat tail collagen (4 mg/mL) combined with 0.1 M NaOH, 3.5 mL 3×DMEM and 5.25 mL of 1×DMEM supplemented with 30% FCS was aliquoted into a 24 well plate, allowed to gel at 37° C. for 1 hour and equilibrated overnight in complete EC medium: RPMI-1640 supplemented with 20% heat inactivated FCS, 2-mercaptoethanol (4 L/L), gentamicin (10 g/mL) and EC growth supplement (50 g/mL, BD Biosciences). Aortas from CD73^−/− or WT mice cut into circular rings were opened longitudinally and placed luminal side down onto the collagen gel. After 2 days, complete medium was added and changed every third day. After 10 days, aortic segments were removed and the collagen gel digested with 0.3% collagenase H. Then, ECs were grown in complete medium and used between passages 2-8. Some ECs were treated with ATL-146e (10 μM) for 6 hours. Mono Mac 6 cells were maintained as described.
RNA was prepared using the RNAqzeous-Micro isolation kit (Ambion) and RNeasy Mini kit (Qiagen) and reverse-transcribed into cDNA using Mo-MLV RT (Invitrogen).

[2] = test system: surface protein expression of VCAM-1 in aortic ECs; test: VCAM-1 surface protein expression in aortic ECs (flow cytometry); type: cell-based, mouse; settings: ATL-146e 10 μM for 6 hours
Procedure: as §1, with “Mono Mac 6 cells were maintained as described.” left out
For immunofluorescence, confluent ECs on glass chamber slides were fixed in methanol, permeabilized with 0.5% triton and reacted with p65 (C-20, Santa Cruz) or isotype control and FITC-conjugated secondary Ab (Boehringer Mannheim). […] After incubation for 30 min at RT, primary Ab binding was detected using a FITCconjugated secondary Ab (Boehringer Mannheim) and analyzed in a FACSCalibur (BD Biosciences). Specific mean fluorescence intensity was determined by subtracting isotype control staining.

[3] = test system: arrest of Mono Mac 6 cells on aortic ECs; test: Adhesion assay: monocyte arrest on ECs under laminar flow; type: cell-based, mouse; settings: ATL-146e 10 μM for 6 hours
Procedure: as §1
Laminar flow assays were performed as described. ECs were perfused with Mono Mac 6 cells (0.5×10^6/mL) pre-treated with or without anti-VLA-4 (10 g/mL, Immunotech) at 1.5 dyn/cm^2. The numbers of firmly arrested and rolling cells were quantified after 4 min in multiple (>10) fields by analyzing images recorded by video microscopy, and expressed as cells/mm^2

[4] = test system: wire-injured carotid arteries of WT and CD73−/− mice; test: Mouse model of carotid artery injury, neointima formation; type: in vivo; settings: 4 weeks after injury, continuous infusion 0.004 μg/kg per minute
Source text: Male, 6-12 week old CD73^−/− or WT NMRI mice (n=6-8) were left untreated or fed an atherogenic diet containing 21% fat for one week before and up to 4 weeks after injury. Transluminal carotid artery injury was induced by 4 rotational passes of a 0.36-mm guide-wire. After 6 days of diet and one day before carotid injury, some mice (n=10 per group) were anesthetized and underwent implantation of a primed, 28-day osmotic pump (model 2004, Alza Corp) placed subcutaneously via transverse midscapular incision for continuous treatment with ATL (0.004 μg/kg per minute; 200 μL of 1% dimethyl sulfoxide in saline; kind gift from G. W. Sullivan and J. Linden, University of Virginia). Arteries were harvested by in situ perfusion fixation with 4% paraformaldehyde and embedded in paraffin. […]
Neointimal and medial areas were quantified in serial 5 μm sections of common carotid arteries within a standardized distance from the bifurcation (50-250 μm) stained with Movat pentachrome Areas within the external elastic lamina (EEL), internal elastic lamina (TEL) and lumen (L) were determined by computer-assisted planimetry (Diskus software, Hilgers). […] The relative content of macrophages in the neointima was determined in serial sections of the LCA within 300 μm from the bifurcation (6 per mouse, each 50 μm apart). […] Images were recorded using a Leica DMLB microscope and CCD camera. […]

CCNC(=O)[C@H]1O[C@@H](n2cnc3c(N)nc(C#CCC4CCC(C(=O)OC)CC4)nc32)[C@H](O)[C@@H]1O (stereo partly shown) [ATL-146e]
VCAM-1 mRNA expression [1]: reduced the elevated VCAM-1 mRNA expression | surface protein expression of VCAM-1 ([2]; CD73−/− ECs): reversed the increased surface protein expression of VCAM-1 | surface protein expression of VCAM-1 ([2]; WT ECs): slightly diminished its expression | monocyte arrest ([3]; CD73−/− ECs): inhibition of the monocyte arrest | monocyte arrest ([3]; WT ECs): not affected | neointimal hyperplasia in carotid arteries ([4]; CD73−/− mice, vs control CD73−/− mice): completely prevented neointimal hyperplasia | neointima formation in carotid arteries ([4]; WT mice, vs control WT mice): significantly inhibited neointima formation
